In patent US7319098B2, “1,3-dioxoisoindole derivatives having selective antagonism of T-type calcium channel” (Korea Institute of Science and Technology, priority 2006, dated 2008):

Biological target: T1, α1G T-type Ca2+ channels (Homo sapiens, UniProt O43497)
T1 construct: expressed in transfected cells; host or cells: HEK293 cells stably expressing α1G and Kir2.1
Test: Screening of activity against T-type calcium channel with FDSS6000 (fluorescence, KCl-induced [Ca2+]i increase)
Assay type: cell-based
Conditions: HEK293 cells expressing α1G and Kir2.1, read-out: Inhibitory effect (%) of T-type calcium channel, Inhibition (%); for inhibition at 10 µM: NA: Not Active
Procedure: Meanwhile, the antagonistic activity of the novel compound of Formula (1) herein against T-type calcium channel was tested as described below. The synthesized compounds were tested for the activity against T-type calcium channel with FDSS6000. Compounds with good activity were selected and IC50 values were exactly obtained by using electrophysiological whole cell patch clamp method. HEK293 cells which stably express both α1G and Kir2.1 subunits were grown in Dulbecco's modified Eagle's medium supplemented with 10% (v/v) fetal bovine serum, penicillin (100 U/mL), streptomycin (100 μg/mL), geneticin (500 μg/mL), and +puromycin (I μg/mL) at 37° C. in a humid atmosphere of 5% CO2 and 95% air. Cells were seeded into 96-well black wall clear bottom plates at a density of 4×10^4 cells/well and were used the next day for high-throughput screening (HTS) FDSS6000 assay. For FDSS6000 assay, cells were incubated for 60 min at room temperature with 5 μM fluo3/AM and 0.001% Pluronic F-127 in a HEPES-buffered solution composed of (in mM): 115 NaCl, 5.4 KCl, 0.8 MgCl2, 1.8 CaCl2, 20 HEPES, 13.8 glucose (pH 7.4). During the fluorescence-based FDSS6000 assay, cells in HEPES-buffered solution containing 10 mM CaCl2 were pretreated with a certain concentration of test compounds and then treated with high concentration of KCl ([…]). α1G T-type Ca^2+ channels were activated by using high concentration of KCl (70 mM) and the increase in [Ca^2+]i by KCl-induced depolarization was detected. During the whole procedure, cells were washed using the BIO-TEK 96-well washer. All data were collected and analyzed using FDSS6000 and related software (Hamamatsu, Japan). The IC50 results of examining the inhibitory effects of the compounds herein selected with FDSS6000 on the calcium influx through the T-type calcium channel are provided in TABLEs 1 and 2.

T1 sequence (O43497 whole entry): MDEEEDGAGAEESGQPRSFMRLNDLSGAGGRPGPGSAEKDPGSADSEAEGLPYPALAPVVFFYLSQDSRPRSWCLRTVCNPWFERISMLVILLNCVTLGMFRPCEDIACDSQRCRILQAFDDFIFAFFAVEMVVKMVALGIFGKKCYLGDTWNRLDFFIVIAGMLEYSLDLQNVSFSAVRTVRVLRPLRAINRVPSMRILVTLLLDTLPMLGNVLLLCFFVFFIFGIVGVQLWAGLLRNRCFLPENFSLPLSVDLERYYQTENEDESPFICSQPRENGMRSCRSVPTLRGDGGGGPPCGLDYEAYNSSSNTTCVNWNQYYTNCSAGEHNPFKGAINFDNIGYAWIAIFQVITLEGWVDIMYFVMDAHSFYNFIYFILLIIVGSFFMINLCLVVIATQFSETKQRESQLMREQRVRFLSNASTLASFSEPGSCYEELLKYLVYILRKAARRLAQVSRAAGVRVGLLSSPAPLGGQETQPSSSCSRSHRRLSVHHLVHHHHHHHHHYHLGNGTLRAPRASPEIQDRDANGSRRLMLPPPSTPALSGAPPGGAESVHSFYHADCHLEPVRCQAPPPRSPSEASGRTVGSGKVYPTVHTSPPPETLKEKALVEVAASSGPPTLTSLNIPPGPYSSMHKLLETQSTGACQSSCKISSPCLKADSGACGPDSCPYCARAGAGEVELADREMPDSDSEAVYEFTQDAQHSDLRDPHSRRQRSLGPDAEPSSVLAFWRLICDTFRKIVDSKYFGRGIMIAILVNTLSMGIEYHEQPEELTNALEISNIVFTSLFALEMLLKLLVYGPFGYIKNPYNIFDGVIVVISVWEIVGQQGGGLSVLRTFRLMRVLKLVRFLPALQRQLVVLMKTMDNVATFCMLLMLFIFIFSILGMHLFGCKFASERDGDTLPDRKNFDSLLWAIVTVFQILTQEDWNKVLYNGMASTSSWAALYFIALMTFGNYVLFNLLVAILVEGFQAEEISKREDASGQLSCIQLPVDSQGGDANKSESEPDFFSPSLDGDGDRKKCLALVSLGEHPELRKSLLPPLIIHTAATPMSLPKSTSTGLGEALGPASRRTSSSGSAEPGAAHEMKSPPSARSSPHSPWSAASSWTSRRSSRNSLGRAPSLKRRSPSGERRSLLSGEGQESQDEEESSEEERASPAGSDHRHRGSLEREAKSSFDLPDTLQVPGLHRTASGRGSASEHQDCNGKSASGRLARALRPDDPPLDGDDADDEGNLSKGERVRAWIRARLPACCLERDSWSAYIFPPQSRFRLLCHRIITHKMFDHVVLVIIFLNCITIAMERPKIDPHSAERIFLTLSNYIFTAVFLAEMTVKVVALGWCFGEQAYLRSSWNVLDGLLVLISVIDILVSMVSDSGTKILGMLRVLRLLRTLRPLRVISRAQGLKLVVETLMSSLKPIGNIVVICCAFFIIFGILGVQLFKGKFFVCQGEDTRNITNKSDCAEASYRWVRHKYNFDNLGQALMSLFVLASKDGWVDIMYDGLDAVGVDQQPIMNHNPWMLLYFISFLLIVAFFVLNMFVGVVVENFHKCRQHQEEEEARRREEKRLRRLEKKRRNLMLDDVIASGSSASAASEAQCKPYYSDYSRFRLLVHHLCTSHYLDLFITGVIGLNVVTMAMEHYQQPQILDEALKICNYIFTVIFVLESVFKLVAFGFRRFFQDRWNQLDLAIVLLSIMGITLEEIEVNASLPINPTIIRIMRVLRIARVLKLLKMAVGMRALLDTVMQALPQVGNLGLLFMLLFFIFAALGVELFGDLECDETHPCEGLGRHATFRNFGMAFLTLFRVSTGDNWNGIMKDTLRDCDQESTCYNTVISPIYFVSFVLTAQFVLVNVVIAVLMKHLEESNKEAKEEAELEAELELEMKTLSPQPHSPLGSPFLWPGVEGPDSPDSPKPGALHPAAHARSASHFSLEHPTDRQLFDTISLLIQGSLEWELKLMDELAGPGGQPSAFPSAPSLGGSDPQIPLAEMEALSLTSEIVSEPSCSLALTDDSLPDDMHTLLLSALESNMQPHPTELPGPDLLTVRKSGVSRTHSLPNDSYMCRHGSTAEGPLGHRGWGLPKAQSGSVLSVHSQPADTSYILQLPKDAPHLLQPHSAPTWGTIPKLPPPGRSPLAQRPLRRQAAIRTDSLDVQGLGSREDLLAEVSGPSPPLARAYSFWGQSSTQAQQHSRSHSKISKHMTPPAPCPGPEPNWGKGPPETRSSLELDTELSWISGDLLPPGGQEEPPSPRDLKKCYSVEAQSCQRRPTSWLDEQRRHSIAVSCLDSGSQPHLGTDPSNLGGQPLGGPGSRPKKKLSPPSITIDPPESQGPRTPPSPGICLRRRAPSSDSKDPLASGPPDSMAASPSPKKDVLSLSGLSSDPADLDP

Row | inhibition at 100 µM | inhibition at 10 µM | SMILES
1 | 65.9% |  | O=C(NCCCN1CCCC1)c1ccc2c(c1)C(=O)N(Cc1cccc(F)c1)C2=O [Compound 64, 1-(3-{[2-(3-fluoro-benzyl)-1,3-dioxo-2,3-dihydro-1H-isoindol-5-carbonyl]-amino}-propyl)-pyrrolidinium chloride]
2 | 59.8% |  | O=C(NCCN1CCOCC1)c1ccc2c(c1)C(=O)N(Cc1cccc(F)c1)C2=O [Compound 65, 4-(2-{[2-(3-fluoro-benzyl)-1,3-dioxo-2,3-dihydro-1H-isoindol-5-carbonyl]-amino}-ethyl)-4-morpholinium chloride]
3 | 59.8% |  | O=C(NCCCN1CCOCC1)c1ccc2c(c1)C(=O)N(Cc1cccc(F)c1)C2=O [Compound 66, 4-(3-{[2-(3-fluoro-benzyl)-1,3-dioxo-2,3-dihydro-1H-isoindol-5-carbonyl]-amino}-propyl)-4-morpholinium chloride]
4 |  | 2.2% | CN1CCN(CCCNC(=O)c2ccc3c(c2)C(=O)N(Cc2cccc(F)c2)C3=O)CC1 [Compound 67, 1-(3-{[2-(3-fluoro-benzyl)-1,3-dioxo-2,3-dihydro-1H-isoindol-5-carbonyl]-amino}-propyl)-4-methyl-1-piperazinium chloride]
5 | 78.2% |  | O=C(NCCN1CCCCC1)c1ccc2c(c1)C(=O)N(Cc1ccc(F)cc1)C2=O [Compound 68, 1-(2-{[2-(4-fluoro-benzyl)-1,3-dioxo-2,3-dihydro-1H-isoindol-5-carbonyl]-amino}-ethyl)-piperidinium chloride]
6 | 67.5% |  | O=C(NCCN1CCCC1)c1ccc2c(c1)C(=O)N(Cc1ccc(F)cc1)C2=O [Compound 70, 1-(2-{[2-(4-fluoro-benzyl)-1,3-dioxo-2,3-dihydro-1H-isoindol-5-carbonyl]-amino}-ethyl)-pyrrolidinium chloride]
7 | 46.4% |  | O=C(NCCN1CCOCC1)c1ccc2c(c1)C(=O)N(Cc1ccc(F)cc1)C2=O [Compound 72, 4-(2-{[2-(4-fluoro-benzyl)-1,3-dioxo-2,3-dihydro-1H-isoindol-5-carbonyl]-amino}-ethyl)-4-morpholinium chloride]
8 | 64.8% |  | O=C(NCCCN1CCOCC1)c1ccc2c(c1)C(=O)N(Cc1ccc(F)cc1)C2=O [Compound 73, 4-(3-{[2-(4-fluoro-benzyl)-1,3-dioxo-2,3-dihydro-1H-isoindol-5-carbonyl]-amino}-propyl)-4-morpholinium chloride]
9 |  | 5.6% | CN1CCN(CCCNC(=O)c2ccc3c(c2)C(=O)N(Cc2ccc(F)cc2)C3=O)CC1 [Compound 74, 1-(3-{[2-(4-fluoro-benzyl)-1,3-dioxo-2,3-dihydro-1H-isoindol-5-carbonyl]-amino}-propyl)-4-methyl-1-piperazinium chloride]
10 |  | 33.6% | O=C(NCCN1CCCCC1)c1ccc2c(c1)C(=O)N(Cc1ccccc1Cl)C2=O [Compound 75, 1-(2-{[2-(2-chloro-benzyl)-1,3-dioxo-2,3-dihydro-1H-isoindol-5-carbonyl]-amino}-ethyl)-piperidinium chloride]
11 |  | 21.5% | O=C(NCCN1CCCC1)c1ccc2c(c1)C(=O)N(Cc1ccccc1Cl)C2=O [Compound 77, 1-(2-{[2-(2-chloro-benzyl)-1,3-dioxo-2,3-dihydro-1H-isoindol-5-carbonyl]-amino}-ethyl)-pyrrolidinium chloride]
12 |  | 25.4% | O=C(NCCCN1CCCC1)c1ccc2c(c1)C(=O)N(Cc1ccccc1Cl)C2=O [Compound 78, 1-(3-{[2-(2-chloro-benzyl)-1,3-dioxo-2,3-dihydro-1H-isoindol-5-carbonyl]-amino}-propyl)-pyrrolidinium chloride]
13 |  | 15.6% | O=C(NCCN1CCOCC1)c1ccc2c(c1)C(=O)N(Cc1ccccc1Cl)C2=O [Compound 79, 4-(2-{[2-(2-chloro-benzyl)-1,3-dioxo-2,3-dihydro-1H-isoindol-5-carbonyl]-amino}-ethyl)-4-morpholinium chloride]
14 |  | 23.5% | O=C(NCCCN1CCOCC1)c1ccc2c(c1)C(=O)N(Cc1ccccc1Cl)C2=O [Compound 80, 4-(3-{[2-(2-chloro-benzyl)-1,3-dioxo-2,3-dihydro-1H-isoindol-5-carbonyl]-amino}-propyl)-4-morpholinium chloride]
15 |  | 42.9% | O=C(NCCN1CCCCC1)c1ccc2c(c1)C(=O)N(Cc1cccc(Cl)c1)C2=O [Compound 81, 1-(2-{[2-(3-chloro-benzyl)-1,3-dioxo-2,3-dihydro-1H-isoindol-5-carbonyl]-amino}-ethyl)-piperidinium chloride]
16 |  | 28.9% | O=C(NCCN1CCCC1)c1ccc2c(c1)C(=O)N(Cc1cccc(Cl)c1)C2=O [Compound 83, 1-(2-{[2-(3-chloro-benzyl)-1,3-dioxo-2,3-dihydro-1H-isoindol-5-carbonyl]-amino}-ethyl)-pyrrolidinium chloride]
17 |  | 30.4% | O=C(NCCCN1CCCC1)c1ccc2c(c1)C(=O)N(Cc1cccc(Cl)c1)C2=O [Compound 84, 1-(3-{[2-(3-chloro-benzyl)-1,3-dioxo-2,3-dihydro-1H-isoindol-5-carbonyl]-amino}-propyl)-pyrrolidinium chloride]
18 |  | 25.3% | O=C(NCCN1CCOCC1)c1ccc2c(c1)C(=O)N(Cc1cccc(Cl)c1)C2=O [Compound 85, 4-(2-{[2-(3-chloro-benzyl)-1,3-dioxo-2,3-dihydro-1H-isoindol-5-carbonyl]-amino}-ethyl)-4-morpholinium chloride]
19 |  | 27.8% | O=C(NCCCN1CCOCC1)c1ccc2c(c1)C(=O)N(Cc1cccc(Cl)c1)C2=O [Compound 86, 4-(3-{[2-(3-chloro-benzyl)-1,3-dioxo-2,3-dihydro-1H-isoindol-5-carbonyl]-amino}-propyl)-4-morpholinium chloride]
20 |  | 29.8% | O=C(NCCN1CCCC1)c1ccc2c(c1)C(=O)N(Cc1ccc(Cl)cc1)C2=O [Compound 89, 1-(2-{[2-(4-chloro-benzyl)-1,3-dioxo-2,3-dihydro-1H-isoindol-5-carbonyl]-amino}-ethyl)-pyrrolidinium chloride]
21 |  | 35% | O=C(NCCCN1CCCC1)c1ccc2c(c1)C(=O)N(Cc1ccc(Cl)cc1)C2=O [Compound 90, 1-(3-{[2-(4-chloro-benzyl)-1,3-dioxo-2,3-dihydro-1H-isoindol-5-carbonyl]-amino}-propyl)-pyrrolidinium chloride]
22 |  | 26.1% | O=C(NCCN1CCOCC1)c1ccc2c(c1)C(=O)N(Cc1ccc(Cl)cc1)C2=O [Compound 91, 4-(2-{[2-(4-chloro-benzyl)-1,3-dioxo-2,3-dihydro-1H-isoindol-5-carbonyl]-amino}-ethyl)-4-morpholinium chloride]
23 |  | 29.9% | O=C(NCCCN1CCOCC1)c1ccc2c(c1)C(=O)N(Cc1ccc(Cl)cc1)C2=O [Compound 92, 4-(3-{[2-(4-chloro-benzyl)-1,3-dioxo-2,3-dihydro-1H-isoindol-5-carbonyl]-amino}-propyl)-4-morpholinium chloride]
24 |  | 15.7% | Cc1ccccc1CN1C(=O)c2ccc(C(=O)NCCN3CCCC3)cc2C1=O [Compound 95, 1-(2-{[2-(2-methyl-benzyl)-1,3-dioxo-2,3-dihydro-1H-isoindol-5-carbonyl]-amino}-ethyl)-pyrrolidinium chloride]
25 |  | 15.5% | Cc1ccccc1CN1C(=O)c2ccc(C(=O)NCCCN3CCCC3)cc2C1=O [Compound 96, 1-(3-{[2-(2-methyl-benzyl)-1,3-dioxo-2,3-dihydro-1H-isoindol-5-carbonyl]-amino}-propyl)-pyrrolidinium chloride]
26 | 69.8% |  | Cc1ccccc1CN1C(=O)c2ccc(C(=O)NCCN3CCOCC3)cc2C1=O [Compound 97, 4-(2-{[2-(2-methyl-benzyl)-1,3-dioxo-2,3-dihydro-1H-isoindol-5-carbonyl]-amino}-ethyl)-4-morpholinium chloride]
27 | 55.2% |  | Cc1ccccc1CN1C(=O)c2ccc(C(=O)NCCCN3CCOCC3)cc2C1=O [Compound 98, 4-(3-{[2-(2-methyl-benzyl)-1,3-dioxo-2,3-dihydro-1H-isoindol-5-carbonyl]-amino}-propyl)-4-morpholinium chloride]
28 |  | 27.2% | Cc1cccc(CN2C(=O)c3ccc(C(=O)NCCN4CCCC4)cc3C2=O)c1 [Compound 101, 1-(2-{[2-(3-methyl-benzyl)-1,3-dioxo-2,3-dihydro-1H-isoindol-5-carbonyl]-amino}-ethyl)-pyrrolidinium chloride]
29 |  | 24.8% | Cc1cccc(CN2C(=O)c3ccc(C(=O)NCCCN4CCCC4)cc3C2=O)c1 [Compound 102, 1-(3-{[2-(3-methyl-benzyl)-1,3-dioxo-2,3-dihydro-1H-isoindol-5-carbonyl]-amino}-propyl)-pyrrolidinium chloride]
